The source of these data is ChEMBL document CHEMBL1141382, “Studies leading to potent, dual inhibitors of Bcl-2 and Bcl-xL” (J Med Chem, 2007).

pEC50, pIC50, pKi: −log10 of the molar value. Where only a bound is given, the exact number is not on record here.

The target of assay [1] is T1, Bcl-2-like protein 1 (Homo sapiens, UniProt Q07817). Kind of assay: Displacement of Bad-derived peptide from Bcl-xL by fluorescence polarization assay. For orientation: Polarisation of emitted light reports the rotation of a fluorescent probe.
T1 sequence (Q07817 whole entry): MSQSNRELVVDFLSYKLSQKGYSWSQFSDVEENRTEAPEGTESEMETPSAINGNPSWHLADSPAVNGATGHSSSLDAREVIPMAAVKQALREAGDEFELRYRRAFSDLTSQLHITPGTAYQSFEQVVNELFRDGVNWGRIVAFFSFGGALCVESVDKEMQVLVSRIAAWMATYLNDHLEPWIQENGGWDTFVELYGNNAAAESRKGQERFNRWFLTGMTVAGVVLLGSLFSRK
Assay [2] addresses Apoptosis regulator Bcl-2 (Homo sapiens, UniProt P10415). Kind of assay: Displacement of Bax-derived peptide from Bcl2 by fluorescence polarization assay.
Assay [3] concerns the target T1, Bcl-2-like protein 1. Nature of the assay: Displacement of Bad-derived peptide from Bcl-xL by FPA in presence of 10% human serum.
A further assay deals with FL5.12. Nature of the assay: Reversal of cytokine withdrawal protection in IL3 dependent Bcl-xL overexpressing mouse FL5.12 cells in presence of 3% FBS. It is filed as functional.
A short description of assay [4]: Reversal of cytokine withdrawal protection in IL3 dependent Bcl-xL overexpressing mouse FL5.12 cells.

Sequence of Apoptosis regulator Bcl-2 (P10415 whole entry): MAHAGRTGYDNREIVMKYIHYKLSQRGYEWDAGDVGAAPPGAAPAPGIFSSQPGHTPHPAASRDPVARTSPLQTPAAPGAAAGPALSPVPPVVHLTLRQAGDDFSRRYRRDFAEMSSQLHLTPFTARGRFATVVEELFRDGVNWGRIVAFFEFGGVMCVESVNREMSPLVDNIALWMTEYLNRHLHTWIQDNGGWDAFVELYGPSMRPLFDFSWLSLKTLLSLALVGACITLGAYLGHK

Consider `CN(C)CC[C@H](CSc1ccccc1)Nc1ccc(S(=O)(=O)NC(=O)c2ccc(N3CCN(Cc4ccccc4-c4ccc(S(C)(=O)=O)cc4)CC3)cc2)cc1[N+](=O)[O-]`, for which the negative-log IC50 (pIC50) on Bcl-2-like protein 1 [1] is 8.04; on Bcl-2-like protein 1 [3], more than 7.22. The molecule also gave a pKi in assay [2] of more than 9.00. The pEC50 in the assay on FL5.12 is 5.17.
With `CN(C)CC[C@H](CSc1ccccc1)Nc1ccc(S(=O)(=O)NC(=O)c2ccc(N3CCN(Cc4ccccc4-c4ccccc4Cl)CC3)cc2)cc1[N+](=O)[O-]`, the figures for the negative logarithm of the Ki (pKi) (at Bcl-2-like protein 1 [1]; in assay [2]) were more than 9.30 and more than 9.00, respectively. Further, the negative-log IC50 (pIC50) at Bcl-2-like protein 1 [3] was more than 7.22. For the same molecule, the negative logarithm of the EC50 (pEC50) with FL5.12 was 5.60.
`CN(C)CC[C@H](CSc1ccccc1)Nc1ccc(S(=O)(=O)NC(=O)c2ccc(N3CCC(C)(C)CC3)cc2)cc1[N+](=O)[O-]`: the pIC50 on Bcl-2-like protein 1 [3] was 6.44. Further, the figures for the pEC50 (with FL5.12; in assay [4]) were 5.29 and 6.33, respectively.
As for `COc1cccc(-c2ccccc2CN2CCN(c3ccc(C(=O)NS(=O)(=O)c4ccc(N[C@H](CCN(C)C)CSc5ccccc5)c([N+](=O)[O-])c4)cc3)CC2)c1`, the pKi is more than 9.30 on Bcl-2-like protein 1 [1] and more than 9.00 in assay [2]. The pIC50 on Bcl-2-like protein 1 [3] was 6.75. Moreover, the negative-log EC50 (pEC50) with FL5.12 is 5.35.
In the same order, the values of `CN(C)CC[C@H](CSc1ccccc1)Nc1ccc(S(=O)(=O)NC(=O)c2ccc(N3CCN(Cc4ccccc4-c4cccc(Cl)c4)CC3)cc2)cc1[N+](=O)[O-]` are more than 9.30, 7.77, 6.85 and 5.55.
`CN(C)CC[C@H](CSc1ccccc1)Nc1ccc(S(=O)(=O)NC(=O)c2ccc(N3CCN(Cc4ccccc4-c4ccc(Cl)cc4)CC3)cc2)cc1[N+](=O)[O-]` [ABT 737]: the pEC50 in the assay on FL5.12 was 6.66.
As to `CN(C)CC[C@H](CSc1ccccc1)Nc1ccc(S(=O)(=O)NC(=O)c2ccc(N3CCN(Cc4ccccc4-c4ccc(-c5ccccc5)cc4)CC3)cc2)cc1[N+](=O)[O-]`, the pKi is 9.00 on Bcl-2-like protein 1 [1] and more than 9.00 in assay [2]. Also, the pIC50 on Bcl-2-like protein 1 [3] was 7.00. Besides, the pEC50 in the assay with FL5.12 is 6.92.
Take `CN(C)CC[C@H](CSc1ccccc1)Nc1ccc(S(=O)(=O)NC(=O)c2ccc(N3CCN(Cc4ccccc4-c4ccccc4)CC3)cc2)cc1[N+](=O)[O-]`: the pKi on Bcl-2-like protein 1 [1] is more than 9.30; in assay [2], more than 9.00. The pIC50 at Bcl-2-like protein 1 [3] is more than 7.22. Further, the pEC50 in the assay with FL5.12 is 5.92.
For `COc1ccc(-c2ccccc2CN2CCN(c3ccc(C(=O)NS(=O)(=O)c4ccc(N[C@H](CCN(C)C)CSc5ccccc5)c([N+](=O)[O-])c4)cc3)CC2)cc1`, the pKi on Bcl-2-like protein 1 [1] is more than 9.30; in assay [2], more than 9.00. In addition, the negative-log IC50 (pIC50) on Bcl-2-like protein 1 [3] is more than 7.22. The pEC50 with FL5.12 is 6.15.
`CN(C)CC[C@H](CSc1ccccc1)Nc1ccc(S(=O)(=O)NC(=O)c2ccc(N3CCN(Cc4ccccc4S(C)(=O)=O)CC3)cc2)cc1[N+](=O)[O-]`: the pKi at Bcl-2-like protein 1 [1] is 9.05; in assay [2], 8.34. Besides, the pIC50 at Bcl-2-like protein 1 [3] was 6.77.
For the molecule `CN(C)CC[C@H](CSc1ccccc1)Nc1ccc(S(=O)(=O)NC(=O)c2ccc(N3CCN(Cc4ccccc4-c4ccc(F)cc4)CC3)cc2)cc1[N+](=O)[O-]`, the pKi on Bcl-2-like protein 1 [1] was more than 9.30; in assay [2] it was more than 9.00. The pIC50 at Bcl-2-like protein 1 [3] was more than 7.22. Moreover, the pEC50 in the assay on FL5.12 is 6.15.
On to `CN(C)CC[C@H](CSc1ccccc1)Nc1ccc(S(=O)(=O)NC(=O)c2ccc(N3CCC(=Cc4ccccc4F)CC3)cc2)cc1[N+](=O)[O-]`, for which the pKi at Bcl-2-like protein 1 [1] is more than 9.30; in assay [2], 8.60. In addition, the negative logarithm of the IC50 (pIC50) on Bcl-2-like protein 1 [3] was 6.12.
`CN(C)CC[C@H](CSc1ccccc1)Nc1ccc(S(=O)(=O)NC(=O)c2ccc(N3CCN(Cc4ccccc4-c4ccc(C(F)(F)F)cc4)CC3)cc2)cc1[N+](=O)[O-]`: the negative-log Ki (pKi) on Bcl-2-like protein 1 [1] was more than 9.30; in assay [2] it was more than 9.00. In addition, the negative logarithm of the IC50 (pIC50) on Bcl-2-like protein 1 [3] was more than 7.22. For the same molecule, the pEC50 in the assay with FL5.12 is 6.92.

A word on the pIC50: it is −log10 of the IC50, conventionally taken in molar units. Broadly, the pKi is the negative decadic logarithm of the Ki, by convention in mol/L. One may read the pEC50 as the negative decadic logarithm of the EC50, by convention in mol/L.
